The record followed here is ChEMBL document CHEMBL1275463, “Detection of the erythromycin rRNA methylase gene erm(A) in Enterococcus faecalis” (2008).

≈ marks a conversion by molar mass, not a printed value.

Assay [1] relates to Enterococcus faecalis. As to the kind of experiment: Antimicrobial activity against Enterococcus faecalis expressing rRNA methylase gene erm(A) obtained from pig manure by broth microdilution method. In kind it is functional.
Assay [2] relates to Enterococcus faecalis. As to the kind of experiment: Antimicrobial activity against Enterococcus faecalis expressing rRNA methylase gene erm(A) obtained from human by broth microdilution method. In kind it is functional. (In broth dilution the organism is exposed to a series of concentrations in liquid medium.)

Regarding `CC[C@H]1OC(=O)[C@H](C)[C@@H](O[C@H]2C[C@@](C)(OC)[C@@H](O)[C@H](C)O2)[C@H](C)[C@@H](O[C@@H]2O[C@H](C)C[C@H](N(C)C)[C@H]2O)[C@](C)(O)C[C@@H](C)C(=O)[C@H](C)[C@@H](O)[C@]1(C)O` [ERYTHROMYCIN], the figures for the MIC with Enterococcus faecalis [1] and with Enterococcus faecalis [2] were > 8 µg/mL and 1 µg/mL (≈ 1.36 µM), respectively.
Taken in the same sequence, the figures for `CN(C)[C@@H]1C(O)=C(C(N)=O)C(=O)[C@@]2(O)C(O)=C3C(=O)c4c(O)cccc4[C@@](C)(O)[C@H]3C[C@@H]12` [TETRACYCLINE] were > 4 µg/mL and > 4 µg/mL.
